Data: patent publication US20250319206A1, “CRISPR/CAS GENE EDITING OF NEH4 AND/OR NEH5 DOMAINS IN NRF2” (Christina Care Gene Editing Institute, Inc., priority 2024, published 2025)

Tests used:
NRF2 gene = NRF2 gene editing by Sanger sequencing/DECODR in A549 cells; type: cell-based, Human; conditions: 72 hours after transfection
Source text: (§1) FIG. 4A-C: Lung adenocarcinoma cells targeting Exon 3, 4, 5 of NRF2 and assessment of chemotherapy response. (FIG. 4A) A549 cells were transfected with each respective gRNA. Genomic DNA from each cell population was isolated and amplified across exon 3, 4 or 5 of the NRF2 gene. Amplicons were sanger sequenced and analyzed for indels at the CRISPR target site. The graph presents the total editing efficiency listed as Indel and frameshifting indel % listed as FS. (FIG. 4B) Raw sequence files from cells targeted with gRNA 76 or gRNA 83 were aligned using the software program, DECODR, to display the indel pattern (listed as INDEL and %). […] Viability was measured via bioreduction of MTS to a formazan product. […] The average relative viability of cells in response to cisplatin is graphed above.
(§2) To assess CRISPR activity across various exons of NRF2, several gRNAs were designed along exon 3, 4 and 5 of the NRF2 gene in the A549 cell line. The A549 cells were transfected with each individually designed gRNA and cells were collected 72 hours after transfection. Genomic DNA was isolated, PCR amplified and Sanger sequenced. Editing activity was quantified using DECODR to deconvolute the indels present in at the cut site of each gRNA. […]

A549 cells = assay: Cell viability (MTS) of gRNA-targeted A549 cells; type: cell-based, Human; conditions: without any cisplatin exposure (0 uM), vs wildtype untransfected cells
Source text: as §1, §2

With “sg83: gRNA targeting exon 4 of NRF2; GTAGCCCCTGTTGATTTAGA CGG (guide GTAGCCCCTGTTGATTTAGACGG; listed as DNA, chemistry not given here)” the “editing efficiency (comparison among gRNAs)” value (NRF2 gene) was “highest editing efficiency” and the viability (A549 cells) was “much lower viability”.
